The results in this text go back to patent US11357814B2, “Application of Sarcococca vagans, Chinese medicinal ointment for treating skin disease, preparation method and application thereof” (priority 2017, dated 2022).

The test system of assay [1] is xylene-induced mouse ear edema. The assay can be described thus: Xylene-induced mouse ear edema (Effect Example 6). The assay is classed as in vivo, Kunming mice. The note with it: dexamethasone 9.9 ug/kg fed. From the text: Influences of Sarcococca […] to xylene-induced mouse ear edema. Roots of Sarcococca […] dried in the sun, and ground to powder for subsequent use. 1. […] Test reagent: Sarcococca […] powder, dexamethasone acetate tablets (Zhejiang Xianju Pharmaceutical Co., Ltd., batch No. 120347), and glacial acetic acid and xylene were both analytically pure. 3. […] After the Sarcococca […] powder was sieved by 120 meshes, a suitable amount of the Sarcococca […] powder was taken and dissolved in a 0.5% sodium carboxymethylcellulose solution, to prepare high-dosage (0.30 g/ml), medium-dosage (0.15 g/ml), and low-dosage (0.075 g/ml) Sarcococca […] powder suspension. The dexamethasone acetate tablets were ground in the 0.5% sodium carboxymethylcellulose solution, to prepare 19.8 ug/ml suspension. […] For each group, the mice were fed twice each day for first two days, once on the third day, and after 30 min, 0.05 ml of xylene was applied to both front and back faces of right ear of each mouse in each group, while left ear was not coated with the medicine as control. 40 min after the coating, the mice were killed by cervical dislocation, the left and right ears were cut off, and ear slices at the same parts of the two ears were taken with a puncher and weighed. The difference between weights of the left and right ears is swelling degree. Each group was recorded, and t test was carried out among the groups. […]

For assay [2], the system named is capillary permeability of mouse abdominal cavities. Kind of assay: Inhibition of capillary permeability of mouse abdominal cavities, Evans blue / glacial acetic acid (Effect Example 7). The format is in vivo, Kunming mice. To be noted: dexamethasone 9.9 ug/kg fed; 580 nm. The text has this:
Test for Sarcococca […] effect of inhibiting capillary permeability. Roots of Sarcococca […] dried in the sun, and ground to powder for subsequent use. 1. […] 2. Test reagent: Sarcococca […] powder, dexamethasone acetate tablets (Zhejiang Xianju Pharmaceutical Co., Ltd., batch No. 120347), and glacial acetic acid and xylene were both analytically pure. 3. […] After the Sarcococca […] powder was sieved by 120 meshes, a suitable amount of the Sarcococca […] powder was taken and dissolved in a 0.5% sodium carboxymethylcellulose solution, to prepare high-dosage (0.30 g/ml), medium-dosage (0.15 g/ml), and low-dosage (0.075 g/ml) Sarcococca […] powder suspension. The dexamethasone acetate tablets were ground in the 0.5% sodium carboxymethylcellulose solution, to prepare 19.8 ug/ml suspension. […] For each group, the mice were fed twice each day for the first two days, fed once on the third day, after 30 min, the animals in each group were injected with Evans blue saline at 0.1 ml/10 g through tail vein, then were intraperitoneally injected with 0.9% glacial acetic acid, 40 min after the injection, each animal was killed by cervical dislocation, whose abdominal cavity was washed with saline, and a washing liquid was collected, to be adjusted to a volume of 7 ml, centrifuged at 3000 r/min for 5 min, and measured in absorbance at a 580 nm wavelength.

Another assay has as its system allergic dermatitis. Kind of assay: Clinical treatment of allergic skin diseases with ointment (Effect Example 2). The format is in vivo, human. From the text: For the purpose of explaining application of the Chinese medicinal ointment provided in the present disclosure for treating allergic skin diseases, for example, treating dermatitis and eczema.
1. Subjects: 300 patients were collected clinically, with […] and 131 females, between 19 years old and 68 years old, all of whom suffered from allergic dermatitis.
2. Test grouping: the patients were randomly grouped into 3 groups, 100 patients in each group. The Chinese medicinal ointment prepared in Examples 1-9 was used for the test group, the Chinese medicinal ointment prepared in the comparative example was used for Control Group 1, and another commercially available ointment for treating dermatitis, e.g. Fluocinolone acetonide, was used for Control Group 2. For each patient, the corresponding ointment was applied on affected parts twice a day, for 1 month continuously.
(§1) 3. Criterion of therapeutic effect:
Cured: clinical symptoms completely disappear;
Total effective rate=(cured cases+effective cases)/total cases

Assay [3] has as its system tinea capitis, tinea corporis, tinea cruris or tinea of feet and hands. The assay can be described thus: Clinical treatment of fungal skin diseases with ointment (Effect Example 3). The format is in vivo, human.
Text: For the purpose of explaining application of the Chinese medicinal ointment provided in the present disclosure for treating fungal skin diseases, for example, treating tinea capitis, tinea corporis, tinea cruris and tinea of feet and hands.
1. Subjects: 150 patients were collected clinically, with 101 males and 49 females, between 16 years old and 65 years old, all of whom suffered from tinea capitis, tinea corporis, tinea cruris or tinea of feet and hands.
2. Test grouping: the patients were randomly grouped into 3 groups, 50 patients in each group. The Chinese medicinal ointment prepared in Examples 1-9 was used for the test group, the Chinese medicinal ointment prepared in the comparative example was used for Control Group 1, and another commercially available ointment for treating tinea corporis, e.g. Ketoconazole, was used for Control Group 2. For each patient, the corresponding ointment was applied on affected parts twice a day, for 2 months continuously.
as §1
Cured: Fungi microscopic examination is negative, and tinea and pruritus completely disappear;
Effective: Fungi microscopic examination is negative, tinea substantially disappears, and pruritus is evidently alleviated;
Ineffective: Fungi microscopic examination is positive, and tinea and pruritus are not relieved. Total effective rate=(cured cases+effective cases)/total cases

The mark [4] stands for this setting: cases of 50 patients per group, twice a day for 2 months.

As for `CC(=O)OCC(=O)[C@@]1(O)[C@H](C)C[C@H]2[C@@H]3CCC4=CC(=O)C=C[C@]4(C)[C@@]3(F)[C@@H](O)C[C@@]21C` [Dexamethasone, dexamethasone acetate], the “Swelling Degree” value in assay [1] (40 min after xylene) is 0.0101 ± 0.0034 g. In addition, the “Swelling Inhibition Rate” value in assay [1] (vs normal group) is on record as 20.0%. The “Absorbance (A)” value in assay [2] is given as 0.569 ± 0.238 ^.

`CC1(C)O[C@@H]2C[C@H]3[C@@H]4C[C@H](F)C5=CC(=O)C=C[C@]5(C)[C@@]4(F)[C@@H](O)C[C@]3(C)[C@]2(C(=O)CO)O1` [Fluocinolone acetonide]: the “Total Effective Rate” value in the assay on allergic dermatitis ((cured cases+effective cases)/total cases, twice a day for 1 month) is given as 77%. This compound had a Cured in the assay on allergic dermatitis (cases of 100 patients per group, applied twice a day for 1 month, clinical symptoms completely disappear) of 40. Moreover, the Ineffective in the assay on allergic dermatitis (cases of 100 patients per group, twice a day for 1 month) was determined as 23. The same compound returned an Effective in the assay on allergic dermatitis (cases of 100 patients per group, twice a day for 1 month, symptoms evidently improved) of 37.

On to `CC(=O)N1CCN(c2ccc(OCC3COC(Cn4ccnc4)(c4ccc(Cl)cc4Cl)O3)cc2)CC1` (centres unmarked) [Ketoconazole], for which the “Total Effective Rate” value in assay [3] ((cured cases+effective cases)/total cases, twice a day for 2 months) was 74%. The Cured in assay [3] (cases of 50 patients per group, applied twice a day for 2 months, fungi microscopic examination negative, tinea and pruritus completely disappear) turned out to be 16. In assay [3] (setting [4]), this compound came in with an Effective of 21 and an Ineffective of 13.
